Molecules are shown by their SMILES. pKi: −log10 of the molar value. Where a name gives a salt, the structure may show the parent alone.

The assay has as its target T1, human MR (Homo sapiens, UniProt P08235).
T1 construct: The full length human MR gene is cloned from a human kidney or human brain cDNA library; made in house; host or cells: SF9 insect cells (baculovirus)
T1 sequence (P08235 1-984): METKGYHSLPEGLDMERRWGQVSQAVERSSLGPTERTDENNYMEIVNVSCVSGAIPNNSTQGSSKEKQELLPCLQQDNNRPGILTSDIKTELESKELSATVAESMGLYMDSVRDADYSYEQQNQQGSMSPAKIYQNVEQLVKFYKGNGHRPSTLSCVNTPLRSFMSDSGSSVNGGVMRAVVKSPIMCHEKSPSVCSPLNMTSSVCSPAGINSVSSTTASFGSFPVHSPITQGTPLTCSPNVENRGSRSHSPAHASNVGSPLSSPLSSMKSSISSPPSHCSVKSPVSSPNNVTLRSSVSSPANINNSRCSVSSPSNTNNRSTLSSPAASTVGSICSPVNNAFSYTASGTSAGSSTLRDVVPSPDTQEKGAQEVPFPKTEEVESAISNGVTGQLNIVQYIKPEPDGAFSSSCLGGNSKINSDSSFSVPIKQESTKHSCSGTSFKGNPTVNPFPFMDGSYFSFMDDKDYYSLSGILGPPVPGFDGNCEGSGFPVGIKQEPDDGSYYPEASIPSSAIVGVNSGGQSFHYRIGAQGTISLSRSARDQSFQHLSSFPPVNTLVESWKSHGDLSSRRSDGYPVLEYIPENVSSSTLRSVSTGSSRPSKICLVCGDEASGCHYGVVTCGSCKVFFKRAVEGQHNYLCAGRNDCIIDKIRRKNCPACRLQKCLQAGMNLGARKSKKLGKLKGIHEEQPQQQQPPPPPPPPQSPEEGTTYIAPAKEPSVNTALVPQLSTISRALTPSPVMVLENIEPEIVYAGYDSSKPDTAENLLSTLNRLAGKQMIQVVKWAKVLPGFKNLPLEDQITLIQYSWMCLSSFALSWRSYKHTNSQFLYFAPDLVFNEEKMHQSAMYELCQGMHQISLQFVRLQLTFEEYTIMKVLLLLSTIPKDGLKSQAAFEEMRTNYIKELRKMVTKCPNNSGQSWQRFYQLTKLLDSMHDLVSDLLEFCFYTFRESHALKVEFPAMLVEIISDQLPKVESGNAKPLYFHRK
Nature of the assay: Mineralocorticoid Receptor Binding Assay (Method 1). Conditions: [3H]-aldosterone. Here is the method:
The full length human MR gene is cloned from a human kidney or human brain cDNA library. Briefly, using synthetic oligonucleotide primers (Eli Lilly and Company, Indianapolis) directed to nucleotides 20-54 and 3700-3666 of the human MR, polymerase chain reaction (PCR) is performed under standard conditions using a human cDNA library. The PCR reaction is performed in a final volume of 50 μl containing about 1 μl of a 50× stock solution of polymerase; about 1 μl of a 50× stock solution of DNTP; about 5 μl of an appropriate PCR buffer; about 1 μl of each primer; about 5 μl of a H. kidney or H. brain cDNA library; and about 36 μl of water. The reaction is allowed to denature for about 30 seconds at 95 degrees Celsius, anneal for about 30 seconds at 55 degrees Celsius, and extend for about 5 minutes at 72 degrees Celsius, the sequence being repeated for a total of about 35 cycles. The desired PCR product (3.68 Kb) is confirmed by gel electrophoresis and subsequently cut from the gel and stored at about −20 degrees Celsius until extraction. To extract the cDNA product from the agarose gel, the QIAEX II Gel Extraction protocol (QIAGEN, Inc.) is employed according to the manufacturer's instructions. Following extraction, the MR cDNA is cloned into an appropriate cloning vector (Zero Blunt TOPO PCR Cloning Kit (Invitrogen, Inc.) and a pAcHLT-baculovirus transfer vector (B.D./Pharminogen), then expressed in SF9 insect cells, essentially according to manufacturer's instructions. Sf9 cells are grown at a scale where gram quantity cell pellets are obtained for subsequent use in the MR binding assay. Harvested cell pellets are lysed by repeated freeze-thaw cycles (about 4) in a suitable lysis buffer then centrifuged at about 1×10^3 G (with the supernatant being saved for future assays).
MR binding assays are performed in a final total volume of about 250 μl containing about 20-25 μg of protein and 0.5 nM of [^3H]-aldosterone plus varying concentrations of test compound or vehicle. The assay binding buffer consists of 30 mM sodium molybdate, 30 mM of TRIS-HCl, 5 mM sodium phosphate, 5 mM sodium pyrophosphate, and about 10% glycerol, pH=7.5.
Briefly, assays are prepared at RT in 96-well Falcon 3072 plates, each well containing 210 μl of binding buffer, 10 μl of [^3H]-aldosterone, 10 μl of test compound/vehicle, and 20 μl of the resuspended receptor protein extract. Incubations are carried out at 4 degrees Celsius with shaking for about 16 hours. 200 μl aliquots of each incubation are filtered onto Millipore HA 0.45 micron 96-well filter plates, pre-moistened with cold 30 mM TRIS-HCl. The filter plates are suctioned dry with vacuum and immediately washed 3× with cold 30 mM TRIS-HCl. The plates are then punched out and the amount of receptor-ligand complex is determined by liquid scintillation counting using 4 ml of Ready Protein Plus™ liquid scintillation cocktail.
By pKi is commonly meant the Ki on a negative log10 scale, so that one unit is a factor of ten. A high value points to a small Ki. In the case of `CC(C)(CN1CCOCC1)n1c(=O)[nH]c2cc(/C=C3\c4ccccc4COc4cc(F)ccc43)ccc21` [Example 1, 1-(1,1-Dimethyl-2-morpholin-4-yl-ethyl)-5-(3-fluoro-6H-dibenzo[b,e]oxepin-11-ylidenemethyl)-1,3-dihydro-benzoimidazol-2-one, E isomer], the negative-log Ki (pKi) was > 6.30.

Consider `CN1CCC(n2c(=O)[nH]c3cc(/C=C4/c5ccc(F)cc5OCc5c(F)cccc54)ccc32)CC1` [Example 2, 5-(3,7-Difluoro-6H-dibenzo[b,e]oxepine-11-ylidenemethyl)-1-(1-methyl-piperidin-4-yl)-1,3-dihydro-benzoimidazol-2-one, E-isomer], for which the negative-log Ki (pKi) was > 6.30.

For `CN1CCC(n2c(=O)[nH]c3cc(/C=C4\c5ccccc5COc5cc(F)ccc54)ccc32)CC1` [Example 3, 5-(3-Fluoro-6H-dibenzo[b,e]oxepin-11-ylidenemethyl)-1-(1-methyl-piperidin-4-yl)-1,3-dihydro-benzoimidazol-2-one, E isomer], the negative logarithm of the Ki (pKi) is > 6.30.

As to `CN1CCC(n2c(=O)[nH]c3cc(/C=C4\c5ccc(F)cc5COc5cc(F)ccc54)ccc32)CC1` [Example 4, 5-(3,8-Difluoro-6H-dibenzo[b,e]oxepin-11-ylidenemethyl)-1-(1-methyl-piperidin-4-yl) -1,3-dihydro-benzoimidazol-2-one, E isomer], the negative logarithm of the Ki (pKi) is > 6.30.

As to `CCN1CC[C@@H](n2c(=O)[nH]c3cc(/C=C4\c5ccc(F)cc5COc5cc(F)ccc54)ccc32)C1` [Example 5, 5-(3,8-Difluoro-6H-dibenzo[b,e]oxepin-11-ylidenemethyl)-1-(1-ethyl-pyrrolidin-3-yl) -1,3-dihydro-benzoimidazol-2-one, HOAc salt, E isomer, chiral], the negative-log Ki (pKi) is > 6.30.

For the compound `CN1CCN(CCCn2c(=O)[nH]c3cc(/C=C4\c5ccccc5COc5cc(F)ccc54)ccc32)CC1` [Example 7], the pKi is > 6.30.

Take `CN1CCN(CCn2c(=O)[nH]c3cc(/C=C4\c5ccccc5COc5cc(F)ccc54)ccc32)CC1` [Example 8]: the negative logarithm of the Ki (pKi) is > 6.30.

For the compound `O=c1[nH]c2cc(/C=C3\c4ccccc4COc4cc(F)ccc43)ccc2n1[C@H]1CCNC1` [Example 9], the negative-log Ki (pKi) was > 6.30.

Turning to `C[C@H](CN1CCOCC1)n1c(=O)[nH]c2cc(/C=C3\c4ccccc4COc4cc(F)ccc43)ccc21` [Example 10], the negative-log Ki (pKi) was > 6.30.

Take `C[C@@H](CN1CCOCC1)n1c(=O)[nH]c2cc(/C=C3\c4ccccc4COc4cc(F)ccc43)ccc21` [Example 11]: the negative-log Ki (pKi) was > 6.30.

In the case of `O=c1[nH]c2cc(/C=C3\c4ccccc4COc4cc(F)ccc43)ccc2n1C1CCNCC1` [Example 12], the negative logarithm of the Ki (pKi) is > 6.30.

With `C[C@@H]1CN(CCn2c(=O)[nH]c3cc(/C=C4\c5ccccc5COc5cc(F)ccc54)ccc32)C[C@H](C)O1` [Example 13], the negative logarithm of the Ki (pKi) was > 6.30.

Take `O=c1[nH]c2cc(/C=C3\c4ccccc4COc4cc(F)ccc43)ccc2n1CCN1CCNCC1` [Example 14]: the pKi was > 6.30.

On to `O=c1[nH]c2cc(/C=C3\c4ccccc4COc4cc(F)ccc43)ccc2n1C1CCNC1` (centres unmarked) [Example 15], for which the pKi was > 6.30.

Take `O=c1[nH]c2cc(/C=C3\c4ccccc4COc4cc(F)ccc43)ccc2n1C1CCNC1` (centres unmarked) [Example 16]: the negative-log Ki (pKi) is > 6.30.

Take `O=c1[nH]c2cc(/C=C3\c4ccccc4COc4cc(F)ccc43)ccc2n1C1CNC1` [Example 17]: the pKi was > 6.30.

Turning to `O=c1[nH]c2cc(/C=C3\c4ccccc4COc4cc(F)ccc43)ccc2n1C[C@@H]1CCCN1` [Example 18], the pKi was > 6.30.

With `O=c1[nH]c2cc(/C=C3\c4ccccc4COc4cc(F)ccc43)ccc2n1C[C@H]1CCCN1` [Example 19], the pKi was > 6.30.

`CN1CCN(CCn2c(=O)[nH]c3cc(/C=C4\c5ccc(F)cc5COc5cc(F)ccc54)ccc32)CC1` [Example 20]: the negative logarithm of the Ki (pKi) is > 6.30.

For the compound `O=c1[nH]c2cc(/C=C3\c4ccc(F)cc4COc4cc(F)ccc43)ccc2n1CCN1CCCC1` [Example 21], the pKi was > 6.30.

For the compound `C[C@H](CN1CCOCC1)n1c(=O)[nH]c2cc(/C=C3\c4ccc(F)cc4COc4cc(F)ccc43)ccc21` [Example 22], the pKi is > 6.30.

On to `C[C@@H](CN1CCOCC1)n1c(=O)[nH]c2cc(/C=C3\c4ccc(F)cc4COc4cc(F)ccc43)ccc21` [Example 23], for which the pKi is > 6.30.

In the case of `CC(C)(CN1CCOCC1)n1c(=O)[nH]c2cc(/C=C3\c4ccc(F)cc4COc4cc(F)ccc43)ccc21` [Example 24], the pKi was > 6.30.

For `C[C@@H]1CN(CCn2c(=O)[nH]c3cc(/C=C4\c5ccc(F)cc5COc5cc(F)ccc54)ccc32)C[C@H](C)O1` [Example 25], the pKi is > 6.30.

Turning to `O=c1[nH]c2cc(/C=C3\c4ccc(F)cc4COc4cc(F)ccc43)ccc2n1CCCN1CCOCC1` [Example 26], the pKi was > 6.30.

Turning to `O=c1[nH]c2cc(/C=C3\c4ccc(F)cc4COc4cc(F)ccc43)ccc2n1C1CCNCC1` [Example 28], the pKi was > 6.30.

For the compound `O=c1[nH]c2cc(/C=C3\c4ccc(F)cc4COc4cc(F)ccc43)ccc2n1[C@H]1CCNC1` [Example 29], the pKi was > 6.30.

Regarding `O=c1[nH]c2cc(/C=C3\c4ccc(F)cc4COc4cc(F)ccc43)ccc2n1C1CNC1` [Example 30], the negative logarithm of the Ki (pKi) is > 6.30.

On to `O=c1[nH]c2cc(/C=C3\c4ccc(F)cc4COc4cc(F)ccc43)ccc2n1[C@@H]1CCNC1` [Example 31], for which the pKi is > 6.30.

Regarding `CN1CC[C@H](n2c(=O)[nH]c3cc(/C=C4\c5ccc(F)cc5COc5cc(F)ccc54)ccc32)C1` [Example 32], the pKi was > 6.30.

For the compound `CCN1CC[C@H](n2c(=O)[nH]c3cc(/C=C4\c5ccc(F)cc5COc5cc(F)ccc54)ccc32)C1` [Example 33], the negative logarithm of the Ki (pKi) is > 6.30.

`CN1CCN(CCn2c(=O)[nH]c3cc(/C=C4/c5ccc(F)cc5OCc5c(F)cccc54)ccc32)CC1` [Example 34]: the pKi is > 6.30.

Consider `O=c1[nH]c2cc(/C=C3/c4ccc(F)cc4OCc4c(F)cccc43)ccc2n1CCN1CCCC1` [Example 35], for which the negative logarithm of the Ki (pKi) is > 6.30.

For `O=c1[nH]c2cc(/C=C3/c4ccc(F)cc4OCc4c(F)cccc43)ccc2n1C1CCNCC1` [Example 36], the pKi was > 6.30.

Consider `O=c1[nH]c2cc(/C=C3/c4ccc(F)cc4OCc4c(F)cccc43)ccc2n1[C@H]1CCNC1` [Example 37], for which the pKi is > 6.30.

With `C[C@H](CN1CCOCC1)n1c(=O)[nH]c2cc(/C=C3/c4ccc(F)cc4OCc4c(F)cccc43)ccc21` [Example 38], the pKi is > 6.30.

Consider `C[C@@H](CN1CCOCC1)n1c(=O)[nH]c2cc(/C=C3/c4ccc(F)cc4OCc4c(F)cccc43)ccc21` [Example 39], for which the negative-log Ki (pKi) was > 6.30.

For `CC(C)(CN1CCOCC1)n1c(=O)[nH]c2cc(/C=C3/c4ccc(F)cc4OCc4c(F)cccc43)ccc21` [Example 40], the pKi is > 6.30.
